Measurements reported in patent US11339130B1 (Blade Therapeutics, Inc., priority 2016, dated 2022).

Key:
[1] = system: Calpain activity in SH-SY5Y cells (SBDP-150); assay: SH-SY5Y Spectrin western blot assay (SBDP-150 breakdown product, A23187-induced); format: cell-based; details: Homo sapiens; Column D; SH-SY5Y cells, A23187-induced SBDP-150; read-out: SH-SY5Y Spectrin IC50
[2] = system: Calpain activity in SH-SY5Y cells; assay: SH-SY5Y + AMC fluorescence assay (Suc-LLVY-AMC substrate); format: cell-based; details: Column E, read-out: SH-SY5Y + AMC IC50
[3] = target: T1, human calpain 9 (Homo sapiens, UniProt O14815); assay: Calpain binding: crystal structure interaction distances, human calpain 9
T1 construct: human calpain 9, residues 27-347, was over expressed in E. coli BL21 (DE3); hexa-histidine (N); made in house; host or cells: E. coli BL21 (DE3)
T1 sequence (O14815 27-347): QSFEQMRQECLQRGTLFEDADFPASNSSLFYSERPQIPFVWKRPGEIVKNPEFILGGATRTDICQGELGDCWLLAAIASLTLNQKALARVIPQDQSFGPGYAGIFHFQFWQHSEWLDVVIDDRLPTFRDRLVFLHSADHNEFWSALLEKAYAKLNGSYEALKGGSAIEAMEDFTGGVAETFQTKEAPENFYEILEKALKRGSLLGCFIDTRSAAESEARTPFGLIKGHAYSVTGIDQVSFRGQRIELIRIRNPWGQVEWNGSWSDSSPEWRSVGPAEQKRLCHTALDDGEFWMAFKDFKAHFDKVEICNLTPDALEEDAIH
Procedure: Calpain 9 Protein Preparation: N-terminally hexa-histidine-tagged human calpain 9, residues 27-347, was over expressed in E. coli BL21 (DE3) and purified via Ni-NTA and size-exclusion chromatography with yields >10 mg/liter of culture and >99% purity. The calpain 9 sequence is accession number 014815 at uniprot.org.
Calpain 9 Crystallization: A 10 mg/ml solution of rat calpain 1 or human calpain 9 (obtained as described above) was prepared in 50 mM tris (pH 8), 0.5 M NaCl, 1 mM EDTA, 1 mM CaCl2), and 1 mM beta-mercaptoethanol against MCSG1 screen condition C2 (Anatrace, Maumee, Ohio) containing 0.2 M LiSO4, 0.1 M bis-tris (pH 5.5), and 25% PEG 3350. The solution contained 2.5 mM of test compound supplemented with 20% ethylene glycol as a cryo-protectant. The bound protein was crystallized using vapor diffusion, sitting drop, at […]. The space group was P 41 21 2, with unit cell dimensions of 97.2 Å, 97.2 Å, 173.4 Å.
Calpain 9 Crystallography data collection and refinement: Data was collected at the APS synchrotron, beamline 21-ID-F at […]. Reflections were collect between 45.0-2.1 Å with completeness of 100%. Reflection data was analyzed using XDS and Xscale (Heidelberg, Germany). Structure was solved using molecular replacement and was refined with PHENIX (Berkeley, Calif.) to an R value of 0.168, Rfree=0.210.
Key interactions between test compound moieties (with reference to the variables of Formula II) and calpain 1 or calpain 9 residues were determined as set forth in Tables 4-7 below.

[4] = system: Bleomycin-induced pulmonary fibrosis; assay: Bleomycin-induced pulmonary fibrosis in mice (14 d); format: in vivo; design: concentration or dose not given beside the values
Excerpt: The method for inducing pulmonary fibrosis in mice is described in Current Protocols in Pharmacology: 5.46.1, entitled “Mouse Models of Bleomycin-induced Pulmonary Fibrosis”. In order to induce pulmonary fibrosis, 6-8 week old C57B1/6 mice or Wistar rats are instilled once oropharyngeally with ˜1.5 U/kg of bleomycin sulfate (Calbiochem, Billerica, Mass.). Briefly, for oropharyngeal administration of bleomycin, mice or rats are anesthetized with isofluorane and then suspended on its back at a˜60 degree angle on an inclined surface with a rubber band running under the upper incisors. The airway is opened while securing the tongue with one arm of padded forceps and bleomycin is administered into the back of the oral cavity with a syringe. The animal's tongue and mouth were held open until the liquid disappeared from the oral cavity. The animal was then returned to its cage and monitored until fully recovered from the anesthesia. The study is terminated on day 14-28 for oropharyngeally administered bleomycin in mice and rats. All animals are euthanized at the termination of the studies by cervical dislocation for gross necropsy, and blood collected by cardiac puncture. The lungs from each animal are dissected from the animal and weighed. The BAL cells and fluid are collected by lavaging the lung twice with 0.5 ml Hanks Balanced Salt Solution (HBSS; VWR, Radnor, Pa.). After collection of BAL cells and fluid, lungs are dissected and removed from each animal. Whole lungs are inflated with 10% NBF and then fixed in 10% NBF for histology. Severity of fibrosis in the lungs is evaluated using a modified Ashcroft score (Hubner, Biotechniques, 2008) and subjective fibrosis scores. Lung sections were graded by averaging 5 microscopic fields at 20× on an Ashcroft scale as follows: Grade 0=normal lung; Grade 1=minimally detectable thickening of alveolar walls; Grade 2=Mild thickening of alveolar walls. Grade 3=moderate contiguous thickening of walls with fibrous nodules; Grade 4=Thickened septae and confluent fibrotic masses that total less than 10% of microscopic field. Grade 5=increased fibrosis with definite damage to lung structure and formation of fibrous bands or small fibrous masses between 10 and 50% of microscopic field; Grade 6=Large contiguous fibrotic masses consolidating more than 50% of microscopic field. Grade 7=severe distortion of structure and large fibrous areas; Grade 8=total fibrous obliteration of lung within microscopic field. Each slide was examined at 20× magnification and the score for 5 separate representative fields was averaged for each animal. Subjective scores (H&E and Trichrome-stained slides) were evaluated at 2× magnification for an overall assessment of pathologic change. A score of 0=no detectible findings to 5=complete involvement of consolidation. Scores in each group were averaged and standard error was calculated using Excel 2010. Dense, organized inflammatory exudates were scored as fibrosis. Other tissues were evaluated microscopically and scored routinely.

[5] = non-polar interactions with human calpain 9
[6] = polar interactions with human calpain 9

IC50 [1]: < 10 µM
IC50 [2]: < 10 µM
Interaction Distances P1-Gly95 [3, 5]: 3.9 Å
Interaction Distances P1-Gly189 [3, 5]: 3.5 Å
Interaction Distances P1-Lys188 [3, 5]: 4.0 Å
Interaction Distances P1-Ser242 [3, 5]: 3.5 Å
Interaction Distances P2-Ala255 [3, 5]: 3.6 Å
Interaction Distances P2-Gly190 [3, 5]: 3.0 Å
Interaction Distances P2-Gly253 [3, 5]: 3.2 Å
Interaction Distances P2-His254 [3, 5]: 3.7 Å
Interaction Distances P2-Phe233 [3, 5]: 4.1 Å
Interaction Distances P3-Gly189 [3, 5]: 3.8 Å
Interaction Distances P3-Gly190 [3, 5]: 3.3 Å
Interaction Distances P3-Ser191 [3, 5]: 4.2 Å
Interaction Distances R^10-Gly253 [3, 6]: 3.2 Å
Interaction Distances R^11-Gly190 [3, 6]: 2.9 Å
Interaction Distances R^12-His254 [3, 6]: 2.6 Å
Interaction Distances R^13-Cys97 [3, 6]: 2.9 Å
Interaction Distances R^13-Gln91 [3, 6]: 2.8 Å
Compound: NC(=O)C(=O)[C@H](Cc1ccccc1)NC(=O)c1nsnc1-c1ccccc1 [Compound 72, (S)—N-(4-amino-3,4-dioxo-1-phenylbutan-2-yl)-4-phenyl-1,2,5-thiadiazole-3-carboxamide]
% reduction compared to vehicle [4]: −35%
